Data published in patent publication US20060106014A1, “Methods for treating diabetes” (priority 2004, published 2006).

The compounds below were run against T1, porcine leukocyte 12/15-lipoxygenase (Sus scrofa, UniProt P16469) (assay: 12/15-Lipoxygenase Enzyme Assay (colorimetric, ferric oxidation of xylenol orange)). Conditions: read-out: in vitro IC50 value in a 12/15-LO enzyme assay.
T1 construct: purchased Cayman 60300
T1 sequence (P16469 1-663): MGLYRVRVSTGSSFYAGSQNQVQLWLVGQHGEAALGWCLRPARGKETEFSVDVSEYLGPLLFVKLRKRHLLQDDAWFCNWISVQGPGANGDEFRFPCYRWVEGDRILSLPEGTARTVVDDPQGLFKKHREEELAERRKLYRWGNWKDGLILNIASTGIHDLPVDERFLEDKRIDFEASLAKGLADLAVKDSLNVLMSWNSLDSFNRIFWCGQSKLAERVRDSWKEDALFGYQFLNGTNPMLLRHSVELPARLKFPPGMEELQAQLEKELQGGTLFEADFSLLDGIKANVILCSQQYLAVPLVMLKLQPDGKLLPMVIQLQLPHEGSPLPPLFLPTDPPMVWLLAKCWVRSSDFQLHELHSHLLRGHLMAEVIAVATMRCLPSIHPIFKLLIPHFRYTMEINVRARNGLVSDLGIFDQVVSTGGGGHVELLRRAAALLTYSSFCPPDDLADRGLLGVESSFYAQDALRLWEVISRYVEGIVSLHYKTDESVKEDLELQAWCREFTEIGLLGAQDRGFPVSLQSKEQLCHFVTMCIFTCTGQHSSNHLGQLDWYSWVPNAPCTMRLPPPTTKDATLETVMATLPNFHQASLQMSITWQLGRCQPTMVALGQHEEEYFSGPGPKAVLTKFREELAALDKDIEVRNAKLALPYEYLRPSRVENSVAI
Type: biochemical
Procedure: This procedure was used for measuring the enzymatic activity of porcine leukocyte 12/15-lipoxygenase using a colorimetric method based on the ferric oxidation of xylenol orange.
(§1) The test compound and/or vehicle were added to 1.3 μL 12/15-lipoxygenase in 50 mM Tris-HCl buffer, pH 7.4. The reaction was initiated by addition of 70 μM arachidonic acid in Tris-HCl buffer, pH 7.4, and terminated after a 10 minute incubation at room temperature by addition of FOX reagent (25 mM sulphuric acid, 100 μM xylenol orange, 100 μM iron (II) sulphate, methanol:water 9:1). The yellow color of acidified xylenol orange was converted to a blue color by the lipid hydroperoxide-mediated oxidation of Fe^2+ ions and the interaction of the resulting Fe^3+ ions with the dye. The complex was allowed to form during a 1 hour incubation at room temperature with shaking. Absorbance of the Fe^3+ complex was then measured at 620 nm using a spectrophotometer.
Negative controls contained enzyme during the incubation step but substrate was not added until after the FOX reagent.

SMILES | IC50 [µM]
COCOc1ccc(C=Cc2ccc(C(F)(F)F)cc2)cc1OCOC [1,2-bis-methoxymethoxy-4-[2-(4-trifluoromethyl-phenyl)-vinyl]-benzene] | < 5
Cc1c(O)c(C)c(C(F)(F)F)c2c1CCC(C)(C)O2 [2,2,5,7-tetramethyl-8-(trifluoromethyl)chroman-6-ol] | < 5
Cc1c(O)c(CCC(C)C)c(C)c2c1CCC(C)(C)O2 [2,2,5,8-tetramethyl-7-(3-methyl-butyl)-chroman-6-ol] | < 5
CC1(C)CCc2cc(O)c3cccc(O)c3c2O1 [2,2-dimethyl-3,4-dihydro-2H-benzo[h]chromene-6,10-diol] | < 5
Cc1c(C)c2c(c(C)c1O)CCC(C)(c1cccs1)O2 (stereo not drawn) [2,5,7,8-tetramethyl-2-(thiophen-2-yl)chroman-6-ol] | < 5
Cc1c(C)c2c(c(C)c1O)CCC(C)(C=Cc1ccccc1)O2 (stereo not drawn) [2,5,7,8-tetramethyl-2-styrylchroman-6-ol] | < 5
Cc1cc(C=Cc2ccc([N+](=O)[O-])cc2)cc(C)c1O [2,6-dimethyl-4-[2-(4-nitro-phenyl)-vinyl]-phenol] | < 5
Cc1c(O)cc2c(c1C)OC(C)(CCCl)CC2 (stereo not drawn) [2-(2-chloro-ethyl)-2,7,8-trimethyl-chroman-6-ol] | < 5
Cc1c(C)c2c(c(C)c1O)CCC(C)(c1cc(F)c(O)c(F)c1)O2 (stereo not drawn) [2-(3,5-difluoro-4-hydroxyphenyl)-2,5,7,8-tetramethylchroman-6-ol] | < 5
Oc1ccc(C=Cc2ccc(O)c(O)c2)c(O)c1 [4-(2,4-dihydroxystyryl)benzene-1,2-diol] | < 5
N#Cc1ccc(CCc2cc(O)c(O)c(O)c2)cc1 [4-(3,4,5-trihydroxyphenethyl)benzonitrile] | < 5
N#Cc1ccc(C=Cc2ccc(O)c(O)c2O)cc1 [4-[2-(2,3,4-trihydroxy-phenyl)-vinyl]-benzonitrile] | < 5
COC(=O)c1ccc(C=Cc2ccc(O)c(O)c2)cc1 [4-[2-(3,4-dihydroxy-phenyl)-vinyl]-benzoic acid methyl ester] | < 5
Oc1ccc(C=Cc2ccc(Br)cc2)cc1O [4-[2-(4-bromo-phenyl)-vinyl]-benzene-1,2-diol] | < 5
O=[N+]([O-])c1ccc(C=Cc2ccc(O)c(O)c2)cc1 [4-[2-(4-nitro-phenyl)-vinyl]-benzene-1,2-diol] | < 5
COCOc1ccc(C=Cc2ccc(C(C)(C)C)cc2)cc1OCOC [4-[2-(4-tert-Butyl-phenyl)-vinyl]-1,2-bis-methoxymethoxy-benzene] | < 5
COC(=O)c1ccc(C=Cc2ccc(O)c(O)c2CC=C(C)C)cc1 [4-{2-[3,4-dihydroxy-2-(3-methyl-but-2-enyl)-phenyl]-vinyl}benzoic acid methyl ester] | < 5
O=S(=O)(c1ccc(C=Cc2ccc(O)c(O)c2)cc1)N1CCCCC1 [4-{2-[4-(piperidine-1-sulfonyl)-phenyl]-vinyl}benzene-1,2-diol] | < 5
CC(C)=CCc1cc(C=Cc2ccc(N(C)C)cc2)cc(O)c1O [5-(4-(dimethylamino)styryl)-3-(3-methylbut-2-enyl)benzene-1,2-diol] | < 5
CNc1ccc(C=Cc2cc(O)c(O)c(CC=C(C)C)c2)cc1 [5-(4-(methylamino)styryl)-3-(3-methylbut-2-enyl)benzene-1,2-diol] | < 5
O=[N+]([O-])c1ccc(CCc2cc(O)c(O)c(O)c2)cc1 [5-(4-nitrophenethyl)benzene-1,2,3-triol] | < 5
Cc1c(C)c2c(c(-c3ccco3)c1O)CCC(C)(C)O2 [5-(furan-2-yl)-2,2,7,8-tetramethylchroman-6-ol] | < 5
C=CCSCc1c(O)c(C)c(C)c2c1CCC(C)(C)O2 [5-allylsulfanylmethyl-2,2,7,8-tetramethyl-chroman-6-ol] | < 5
Cc1c(C)c2c(c(Cl)c1O)CCC(C)(C)O2 [5-chloro-2,2,7,8-tetramethylchroman-6-ol] | < 5
COc1c(O)c(C)c(C)c2c1CCC(C)(C)O2 [5-methoxy-2,2,7,8-tetramethylchroman-6-ol] | < 5
Cc1c(O)c(Br)c(C)c2c1CCC(C)(C)O2 [7-bromo-2,2,5,8-tetramethyl-chroman-6-ol] | < 5
Cc1c(O)c(C)c2c(c1I)OC(C)(C)CC2 [8-iodo-2,2,5,7-tetramethylchroman-6-ol] | < 5
Cc1c(O)c(C)c2c(c1CCC(C)C)OC(C)(C)CC2 [8-isopentyl-2,2,5,7-tetramethylchroman-6-ol] | < 5
CC(=O)Nc1ccc(C=Cc2ccc(O)c(O)c2)cc1 [N-{4-[2-(3,4-dihydroxy-phenyl)-vinyl]-phenyl}acetamide] | < 5
CS(=O)(=O)Nc1ccc(C=Cc2ccc(O)c(O)c2)cc1 [N-{4-[2-(3,4-dihydroxy-phenyl)-vinyl]-phenyl}methanesulfonamide] | < 5

Each compound was assayed against T2, 5-lipoxygenase (Homo sapiens, UniProt P09917) (assay: 5-Lipoxygenase Enzyme Assay (colorimetric, ferric oxidation of xylenol orange)). Conditions: read-out: in vitro IC50 value in a 5-LO enzyme assay.
T2 sequence (P09917 1-674): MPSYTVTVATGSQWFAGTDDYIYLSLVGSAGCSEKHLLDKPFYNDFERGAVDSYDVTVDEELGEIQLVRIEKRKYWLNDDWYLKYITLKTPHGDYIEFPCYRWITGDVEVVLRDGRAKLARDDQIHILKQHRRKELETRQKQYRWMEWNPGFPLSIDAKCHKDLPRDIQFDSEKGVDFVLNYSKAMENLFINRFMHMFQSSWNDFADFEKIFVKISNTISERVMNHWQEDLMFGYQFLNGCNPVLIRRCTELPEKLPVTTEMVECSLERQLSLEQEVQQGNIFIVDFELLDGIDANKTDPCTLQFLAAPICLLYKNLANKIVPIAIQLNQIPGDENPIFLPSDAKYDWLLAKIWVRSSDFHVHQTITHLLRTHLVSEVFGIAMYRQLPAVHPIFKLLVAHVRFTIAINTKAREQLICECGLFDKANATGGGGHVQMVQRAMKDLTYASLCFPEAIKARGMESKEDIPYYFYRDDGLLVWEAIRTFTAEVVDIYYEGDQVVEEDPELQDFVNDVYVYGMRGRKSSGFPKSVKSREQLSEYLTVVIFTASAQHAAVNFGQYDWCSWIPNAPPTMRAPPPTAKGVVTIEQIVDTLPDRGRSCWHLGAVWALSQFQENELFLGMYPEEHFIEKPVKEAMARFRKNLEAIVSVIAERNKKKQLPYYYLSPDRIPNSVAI
Type: biochemical
Design: purchased Cayman 60402
Procedure: This procedure was used for measuring the enzymatic activity of human recombinant 5-lipoxygenase using a colorimetric method based on the ferric oxidation of xylenol orange.
as §1, with “was” for “were”, “0.5” for “1.3”, “5-lipoxygenase” for “12/15-lipoxygenase”, “spectrophotometer. Negative controls contained enzyme during the incubation step but substrate was not added until after the FOX reagent.” for “spectrophotometer.”

SMILES | IC50 [µM]
COCOc1ccc(C=Cc2ccc(C(F)(F)F)cc2)cc1OCOC [1,2-bis-methoxymethoxy-4-[2-(4-trifluoromethyl-phenyl)-vinyl]-benzene] | < 5
Cc1c(O)c(C)c(C(F)(F)F)c2c1CCC(C)(C)O2 [2,2,5,7-tetramethyl-8-(trifluoromethyl)chroman-6-ol] | < 5
Cc1c(O)c(CCC(C)C)c(C)c2c1CCC(C)(C)O2 [2,2,5,8-tetramethyl-7-(3-methyl-butyl)-chroman-6-ol] | < 5
CC1(C)CCc2cc(O)c3cccc(O)c3c2O1 [2,2-dimethyl-3,4-dihydro-2H-benzo[h]chromene-6,10-diol] | < 5
Cc1c(C)c2c(c(C)c1O)CCC(C)(c1cccs1)O2 (stereo not drawn) [2,5,7,8-tetramethyl-2-(thiophen-2-yl)chroman-6-ol] | < 5
Cc1c(C)c2c(c(C)c1O)CCC(C)(C=Cc1ccccc1)O2 (stereo not drawn) [2,5,7,8-tetramethyl-2-styrylchroman-6-ol] | < 5
Cc1cc(C=Cc2ccc([N+](=O)[O-])cc2)cc(C)c1O [2,6-dimethyl-4-[2-(4-nitro-phenyl)-vinyl]-phenol] | < 5
Cc1c(O)cc2c(c1C)OC(C)(CCCl)CC2 (stereo not drawn) [2-(2-chloro-ethyl)-2,7,8-trimethyl-chroman-6-ol] | < 5
Cc1c(C)c2c(c(C)c1O)CCC(C)(c1cc(F)c(O)c(F)c1)O2 (stereo not drawn) [2-(3,5-difluoro-4-hydroxyphenyl)-2,5,7,8-tetramethylchroman-6-ol] | < 5
Oc1ccc(C=Cc2ccc(O)c(O)c2)c(O)c1 [4-(2,4-dihydroxystyryl)benzene-1,2-diol] | < 5
N#Cc1ccc(CCc2cc(O)c(O)c(O)c2)cc1 [4-(3,4,5-trihydroxyphenethyl)benzonitrile] | < 5
N#Cc1ccc(C=Cc2ccc(O)c(O)c2O)cc1 [4-[2-(2,3,4-trihydroxy-phenyl)-vinyl]-benzonitrile] | < 5
COC(=O)c1ccc(C=Cc2ccc(O)c(O)c2)cc1 [4-[2-(3,4-dihydroxy-phenyl)-vinyl]-benzoic acid methyl ester] | < 5
Oc1ccc(C=Cc2ccc(Br)cc2)cc1O [4-[2-(4-bromo-phenyl)-vinyl]-benzene-1,2-diol] | < 5
O=[N+]([O-])c1ccc(C=Cc2ccc(O)c(O)c2)cc1 [4-[2-(4-nitro-phenyl)-vinyl]-benzene-1,2-diol] | < 5
COCOc1ccc(C=Cc2ccc(C(C)(C)C)cc2)cc1OCOC [4-[2-(4-tert-Butyl-phenyl)-vinyl]-1,2-bis-methoxymethoxy-benzene] | < 5
COC(=O)c1ccc(C=Cc2ccc(O)c(O)c2CC=C(C)C)cc1 [4-{2-[3,4-dihydroxy-2-(3-methyl-but-2-enyl)-phenyl]-vinyl}benzoic acid methyl ester] | < 5
O=S(=O)(c1ccc(C=Cc2ccc(O)c(O)c2)cc1)N1CCCCC1 [4-{2-[4-(piperidine-1-sulfonyl)-phenyl]-vinyl}benzene-1,2-diol] | < 5
CC(C)=CCc1cc(C=Cc2ccc(N(C)C)cc2)cc(O)c1O [5-(4-(dimethylamino)styryl)-3-(3-methylbut-2-enyl)benzene-1,2-diol] | < 5
CNc1ccc(C=Cc2cc(O)c(O)c(CC=C(C)C)c2)cc1 [5-(4-(methylamino)styryl)-3-(3-methylbut-2-enyl)benzene-1,2-diol] | < 5
O=[N+]([O-])c1ccc(CCc2cc(O)c(O)c(O)c2)cc1 [5-(4-nitrophenethyl)benzene-1,2,3-triol] | < 5
Cc1c(C)c2c(c(-c3ccco3)c1O)CCC(C)(C)O2 [5-(furan-2-yl)-2,2,7,8-tetramethylchroman-6-ol] | < 5
C=CCSCc1c(O)c(C)c(C)c2c1CCC(C)(C)O2 [5-allylsulfanylmethyl-2,2,7,8-tetramethyl-chroman-6-ol] | < 5
Cc1c(C)c2c(c(Cl)c1O)CCC(C)(C)O2 [5-chloro-2,2,7,8-tetramethylchroman-6-ol] | < 5
COc1c(O)c(C)c(C)c2c1CCC(C)(C)O2 [5-methoxy-2,2,7,8-tetramethylchroman-6-ol] | < 5
Cc1c(O)c(Br)c(C)c2c1CCC(C)(C)O2 [7-bromo-2,2,5,8-tetramethyl-chroman-6-ol] | < 5
Cc1c(O)c(C)c2c(c1I)OC(C)(C)CC2 [8-iodo-2,2,5,7-tetramethylchroman-6-ol] | < 5
Cc1c(O)c(C)c2c(c1CCC(C)C)OC(C)(C)CC2 [8-isopentyl-2,2,5,7-tetramethylchroman-6-ol] | < 5
CC(=O)Nc1ccc(C=Cc2ccc(O)c(O)c2)cc1 [N-{4-[2-(3,4-dihydroxy-phenyl)-vinyl]-phenyl}acetamide] | < 5
CS(=O)(=O)Nc1ccc(C=Cc2ccc(O)c(O)c2)cc1 [N-{4-[2-(3,4-dihydroxy-phenyl)-vinyl]-phenyl}methanesulfonamide] | < 5
